Data as given in patent US8841254B2, “Method for treatment of anxiety” (Howard Florey Institute of Experimental Physiology and …, priority 2001, dated 2014).

Experiments:
[1] = system: goat anti-H2 relaxin antibody; test: Antibody crossreactivity radioimmunoassay (displacement of 125I-labeled H2 relaxin); format: binding; conditions: FIG. 4
Protocol: The ability of well characterized human relaxin antibodies to recognize H3 relaxin was tested in comparison to H1 and H2 relaxins by radioimmunoassay. Briefly, goat anti-H2 relaxin (Lucas et al (1989) J. Endocrinol. 120, 449-57) was coated onto 96 well ELISA plates (Disposable Products, Adelaide, Australia) at a dilution of 1:1000 with 0.05M sodium carbonate buffer at 4° C. overnight. After washing twice with PBS-T (phosphate buffered saline; 0.05% Tween 20, pH 7.4) dilutions of human relaxin peptides dissolved in 50 μl of assay buffer (1% BSA in PBS-T) were added together with 50,000 cpm ^125I-labeled relaxin, in 50 μl of assay buffer. H2 relaxin was ^125I-labeled and purified by HPLC (Palejwala et al (1998) Endocrinology 139, 1208-1212). After an overnight incubation at 4° C. the plates were washed twice with PBS-T. The antibody-bound-^125I-labeled H2 relaxin was collected by the addition of 1M NaOH and decanted into tubes for counting on a Packard 5010 gamma counter (Canberra Packard). Experiments were performed at least twice and similar results obtained. Data was plotted as the mean±SEM from one representative experiment performed in triplicate and plotted using PRISM.

[2] = molecular target: T1, relaxin binding sites in THP-1 cells (Homo sapiens, UniProt Q9HBX9); test: THP-1 cell binding assay (competition for 33P-labeled H2 relaxin (B33))
T1 construct: induce cAMP production in the human monocytic cell line (THP-1); endogenous in cells; host or cells: THP-1 (human monocytic cell line)
T1 sequence (Q9HBX9 1-757): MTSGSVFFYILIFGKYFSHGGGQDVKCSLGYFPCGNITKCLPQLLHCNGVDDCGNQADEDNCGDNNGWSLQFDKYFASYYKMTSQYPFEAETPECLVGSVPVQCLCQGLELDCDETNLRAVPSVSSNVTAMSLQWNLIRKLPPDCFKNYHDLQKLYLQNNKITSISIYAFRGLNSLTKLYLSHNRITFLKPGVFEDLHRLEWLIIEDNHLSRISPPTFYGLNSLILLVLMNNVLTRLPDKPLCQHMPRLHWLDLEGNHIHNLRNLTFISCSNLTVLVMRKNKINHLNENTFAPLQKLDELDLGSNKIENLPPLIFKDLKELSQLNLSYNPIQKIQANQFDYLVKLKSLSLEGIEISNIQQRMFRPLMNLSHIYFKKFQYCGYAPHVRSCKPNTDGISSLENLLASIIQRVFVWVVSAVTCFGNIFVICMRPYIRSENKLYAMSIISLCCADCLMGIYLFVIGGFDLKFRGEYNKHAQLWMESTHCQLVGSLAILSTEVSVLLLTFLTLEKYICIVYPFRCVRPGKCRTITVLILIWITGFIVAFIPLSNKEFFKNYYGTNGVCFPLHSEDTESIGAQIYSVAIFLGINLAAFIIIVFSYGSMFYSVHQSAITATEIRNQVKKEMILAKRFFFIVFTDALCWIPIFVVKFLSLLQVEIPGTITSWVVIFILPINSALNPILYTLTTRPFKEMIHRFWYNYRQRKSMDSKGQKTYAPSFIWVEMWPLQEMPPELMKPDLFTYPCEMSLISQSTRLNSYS
Protocol: THP-1 cells were spun down and resuspended in binding buffer (20 mM HEPES, 50 mM NaCl, 1.5 mM CaCl2, 1% BSA, 0.1 mg/ml lysine, 0.01% […], pH 7.5) (Parsell et al (1996) J. Biol. Chem. 271, 27936-27941) to give 2×10^6 cells/well in a 96-well plate. The cells were incubated in binding buffer with ^33P-labeled H2 (B33) relaxin (100 pM: labeled as previously described (Tan et al (1999) Br. J. Pharmacol. 127, 91-98) at 25° C. for 90 min in the absence or presence of increasing concentrations of unlabeled H1, H2 and H3 relaxin ([…]). Non-specific binding was defined with H2 relaxin (1 μM). Cells were harvested using a Packard 96-well plate cell harvester and Whatman GF/C glass fibre filters treated with 0.5% polyethylenimine. The filters were washed three times with modified binding buffer (20 mM HEPES, 50 mM NaCl, 1.5 mM CaCl2), dried in a 37° C. oven, and the radioactivity counted by liquid scintillation spectrometry (TopCount™, Canberra Packard, Australia).

[3] = molecular target: T2, human relaxin receptors (THP-1 cells) (Homo sapiens, UniProt Q9HBX9); test: THP-1 cell bioassay (cAMP production); format: cell-based; conditions: doses up to 1 μM
T2 construct: induce cAMP production in the human monocytic cell line (THP-1); endogenous in cells; host or cells: THP-1 (human monocytic cell line)
T2 sequence (Q9HBX9 1-757): T1 sequence (Q9HBX9 1-757)
Protocol: Biol. Chem. 271, 27936-27941), with the following modifications; […] The plate was then briefly centrifuged, the media removed and the cells resuspended in lysis buffer. cAMP levels were measured in the lysates using the cAMP Biotrak EIA system (Amersham International, Aylesbury, UK). […] Data represent the mean±SEM of three experiments performed in quadruplicate, and are plotted using PRISM (Graphpad Inc., San Diego, Calif.).

Molecule: CC[C@H](C)[C@@H]1NC(=O)[C@H](Cc2ccccc2)NC(=O)[C@H](CCC(=O)O)NC(=O)[C@H](CCCNC(=N)N)NC(=O)CNC(=O)[C@@H](NC(=O)[C@H](CC(C)C)NC(=O)[C@H](CCCNC(=N)N)NC(=O)[C@@H](NC(=O)CNC(=O)[C@H](Cc2ccc(O)cc2)NC(=O)[C@@H]2CCCN2C(=O)[C@H](C)NC(=O)[C@H](C)NC(=O)[C@@H](N)CCCNC(=N)N)C(C)C)CSSC[C@@H]2NC(=O)[C@@H](NC(=O)[C@H](CO)NC(=O)[C@H](CO)NC(=O)[C@H](CO)NC(=O)[C@H](CC(C)C)NC(=O)CNC(=O)[C@H](C)NC(=O)[C@H](CC(C)C)NC(=O)[C@@H](NC(=O)[C@@H](N)CC(=O)O)C(C)C)CSSC[C@H](NC(=O)CNC(=O)[C@H](Cc3c[nH]c4ccccc34)NC(=O)[C@H](CCCCN)NC2=O)C(=O)N[C@@H](CO)C(=O)N[C@@H](CCCCN)C(=O)N[C@@H](CO)C(=O)N[C@@H](CCC(=O)O)C(=O)N[C@@H]([C@@H](C)CC)C(=O)N[C@@H](CO)C(=O)N[C@@H](CO)C(=O)N[C@@H](CC(C)C)C(=O)N[C@H](C(N)=O)CSSC[C@@H](C(=O)NCC(=O)NCC(=O)N[C@@H](CO)C(=O)N[C@@H](CCCNC(=N)N)C(=O)N[C@@H](Cc2c[nH]c3ccccc23)C(N)=O)NC(=O)[C@H]([C@@H](C)O)NC(=O)[C@H](Cc2ccccc2)NC(=O)[C@H]([C@@H](C)CC)NC(=O)[C@H](C(C)C)NC(=O)[C@H](C)NC(=O)[C@H](CCCNC(=N)N)NC1=O [H3 relaxin, Human Relaxin H3 [hR]x-3 A (1-24) Amide-B (1-27) Amide]
- ability to displace 125I-labeled H2 relaxin binding to the anti-H2 relaxin antibody [1]: poor cross reactivity
- Ki [2]: 31.6 nM

Molecule: H2 relaxin: recombinant H2 relaxin, a gift from the Connetics Corporation
- ability to displace 125I-labeled H2 relaxin binding to the anti-H2 relaxin antibody [1]: able to displace

Molecule: bovine insulin [bINSL]
- ability to stimulate cAMP responses [3]: inability

Molecule: hINSL3: Human INSL3 synthesized using the same methodology used for ovine INSL3 (chain 1 AAATNPARYCCLSGCTQQDLLTLCPY; chain 2 PTPEMREKLCGHHFVRALVRVCGGPRWSTEA)
- ability to stimulate cAMP responses [3]: inability
